For 41 molecules, inhibition and Ki results are on record in PMC9459403, “New inhibitors of cathepsin V impair tumor cell proliferation and elastin degradation and increase immune cell cytotoxicity” (Computational and Structural Biotechnology Journal, 2022).

The structures appear in SMILES notation. Bounds are passed on as bounds.

What all share (format): biochemical
The target of test [1] is T1, Cathepsin V (Homo sapiens, UniProt O60911).
T1 construct: made in house; host or cells: Pichia pastoris
Briefly: Determination of relative inhibition, substrate Z-Phe-Arg-AMC. Particulars: inhibitor 50 μM; substrate 2 μM; mean ± SD (n = 2); read-out: Cathepsin V Ri (%) relative inhibition. As to the method:
(§1) Human recombinant cathepsin V was expressed in Pichia Pastoris, and human recombinant cathepsin L was expressed in Escherichia coli, as reported, [51]. To determine the activities of cathepsins V and L, 100 mM acetate buffer (pH 5.5), containing 0.1 % PEG 8000 (Sigma-Aldrich, St. Louis, MO, USA), 5 mM cysteine, and 1.5 mM EDTA was used. Prior to the assay, the enzyme was activated in the assay buffer for 5 min at 37 °C.
(§2) The effect of the inhibitors on cathepsin V and L activity was determined using the substrate Z-Phe-Arg-AMC (Bachem, Bubendorf, Switzerland). The reaction was initiated by adding 90 μL of the activated enzyme (final concentration 2.5 ng/mL and 0.02 nM for cathepsins V and L, respectively) to the wells of a black microtiter plate containing 5 μL of substrate (with a final concentration 2 μM) and 5 μL of inhibitor (with a final concentration of 50 μM). The formation of fluorescent degradation products during the reaction was monitored continuously at 460 nm ± 10 nm with excitation at 380 nm ± 20 nm at 37 °C on a Tecan Infinite M1000 (Mannedorf, Switzerland) spectrofluorometer. All assay mixtures contained 5 % (v/v) DMSO. To prevent false-positive inhibition due to the formation of compound aggregates, 0.01 % Triton X-100 was used. All measurements were performed in triplicate and repeated at least twice. Relative inhibition was calculated using the following equation: relative inhibition (%) = 100(1- vi/vo), where vi and vo denote the reaction velocities in the presence and absence of the inhibitor, respectively.

In test [2] the target is T2, human recombinant cathepsin L (Homo sapiens, UniProt P07711).
T2 construct: made in house; host or cells: Escherichia coli
The test is described as above. The following applies: inhibitor 50 μM; substrate 2 μM; mean ± SD (n = 2); read-out: Cathepsin L Ri (%) relative inhibition. The procedure: as §1, §2

Test [3] deals with T1, Cathepsin V. Description: Determination of Ki values and mode of inhibition. The following applies: mean ± SD (n = 2). The procedure:
as §1
(§3) Inhibition constants were calculated from reaction velocities measured at three substrate concentrations (0.5, 1, and 4 μM) in the presence of inhibitors at seven concentrations (0, 20, 40, 60, 80, 100, and 200 µM). The reaction was initiated by adding 90 μL of enzyme at final concentrations of 2.5 ng/mL and 0.02 nM for cathepsins V and L, respectively, to the wells of a black microtiter plate containing 5 μL of substrate and 5 μL of inhibitor. To evaluate cathepsin V and L activity, the substrate Z-Phe-Arg-AMC was used. The formation of the fluorescent degradation products was monitored as described above. All assay mixtures contained 5 % (v/v) DMSO. All measurements were performed in duplicates and repeated at least twice. The SigmaPlot® 12, Enzyme Kinetics Module™ 1.3 was used to calculate Ki values.

Test [4] concerns the target T2, human recombinant cathepsin L. Briefly: Determination of Ki values and mode of inhibition. The following applies: mean ± SD (n = 2). The procedure: as §1, §3

T1 sequence (O60911 114-334): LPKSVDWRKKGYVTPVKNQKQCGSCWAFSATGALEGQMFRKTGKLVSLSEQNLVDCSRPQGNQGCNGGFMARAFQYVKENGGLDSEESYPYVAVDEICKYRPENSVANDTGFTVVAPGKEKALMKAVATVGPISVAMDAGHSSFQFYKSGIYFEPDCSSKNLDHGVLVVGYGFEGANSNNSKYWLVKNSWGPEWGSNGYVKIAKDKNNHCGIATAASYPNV
T2 sequence (P07711 114-333): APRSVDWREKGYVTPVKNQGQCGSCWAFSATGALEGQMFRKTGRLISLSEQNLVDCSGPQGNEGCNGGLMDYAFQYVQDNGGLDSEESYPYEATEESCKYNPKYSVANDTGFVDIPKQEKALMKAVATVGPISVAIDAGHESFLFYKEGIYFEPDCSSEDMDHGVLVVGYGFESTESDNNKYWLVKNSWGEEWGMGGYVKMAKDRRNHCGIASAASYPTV

Take `CNC(=O)C1(COC)CCCN1C(=O)CN1CCOCC1=O` (centres unmarked) [Compound 38]: the results for the inhibition at 50 µM (at Cathepsin V [1]; in test [2]) were 7.9 ± 0.4% and 2.3 ± 3.1%, respectively.

Regarding `COCCN1CCC(CNC(=O)NCc2ccc(OC)cc2)CC1` [Compound 43], the inhibition at 50 µM was 5.2 ± 1.8% at Cathepsin V [1] and -0.4 ± 2.5% in test [2].

In the case of `O=C(Nc1cc(Cl)ccc1Cl)c1cnc2n(c1=O)CCS2` [Compound 1], the values for the inhibition at 50 µM (at Cathepsin V [1]; in test [2]) were -5.4 ± 2.4% and 4.8 ± 3.9%, respectively.

For the molecule `O=C(Nc1ccc(F)cc1)OC1CCCC(NC(=O)c2c(F)cccc2F)C1` (centres unmarked) [Compound 13], the inhibition at 50 µM worked out at 7.5 ± 5% on Cathepsin V [1] and 13.4 ± 1.4% in test [2].

As for `COc1ccc(CNC(=O)N2CCC(C(=O)N3CCCCC3)CC2)cc1` [Compound 50], the inhibition at 50 µM on Cathepsin V [1] was -2.9 ± 4%; in test [2] it was 13.8 ± 0.5%.

Turning to `O=C(NCC1CCN(C(=O)Oc2ccccc2)CC1)c1ccccc1` [Compound 48], the figures for the inhibition at 50 µM (on Cathepsin V [1]; in test [2]) were 20.4 ± 14.5% and 5.7 ± 3.6%, respectively. In addition, the Ki at Cathepsin V [3] came out at 1190 ± 468 µM; in test [4] it was 1190 ± 357 µM.

`COC(=O)Cc1c[nH]c2ccc(OCC3CO3)cc12` (centres unmarked) [Compound 21]: the inhibition at 50 µM on Cathepsin V [1] was over 20%; in test [2], 15.3 ± 2.9%. In addition, the results for the Ki (on Cathepsin V [3]; in test [4]) were 159 ± 32.8 µM and 236 ± 10.3 µM, respectively.

For `O=C(Nc1nc2c(s1)CN(Cc1ccccc1)CC2)c1ccccc1` [Compound 32], the inhibition at 50 µM on Cathepsin V [1] was found to be 6.9 ± 2.2%; in test [2] it was 4.7 ± 3.2%.

Regarding `O=c1cc(-c2ccccc2)c2cc(Cl)c(OCC3CO3)cc2o1` (centres unmarked) [Compound 23], the inhibition at 50 µM on Cathepsin V [1] is -2.9 ± 1.8%; in test [2], 11.9 ± 6.2%.

For `O=C(N[C@H]1CCCN(Cc2ccccc2)C1)c1ccc(CN2CCCC2)o1` [Compound 28], the results for the inhibition at 50 µM (at Cathepsin V [1]; in test [2]) were 1.1 ± 9% and -4.6 ± 5.2%, respectively.

As for `Cc1c(C(=O)N2CC(N3CCc4ccccc4C3)C2)cnn1-c1ccccc1` [Compound 15], the inhibition at 50 µM on Cathepsin V [1] was -27.6 ± 9.1%; in test [2], -5.4 ± 7.3%.

As to `COc1ccc(C(=O)C2OC2c2cc3ccccc3o2)c(OCc2ccccc2)c1` (centres unmarked) [Compound 22], the inhibition at 50 µM at Cathepsin V [1] was -7.2 ± 7.7%; in test [2] it was 11.1 ± 4.4%.

Regarding `Cc1noc(-c2cccn3c(CNC(=O)c4cc(-c5cccs5)n[nH]4)nnc23)n1` [Compound 18], the values for the inhibition at 50 µM (on Cathepsin V [1]; in test [2]) were 6.7 ± 0.03% and 13 ± 7.9%, respectively.

Take `COC(=O)N1CCC(CNC(=O)NCc2cccc3ccccc23)CC1` [Compound 44]: the inhibition at 50 µM at Cathepsin V [1] amounted to 11.1 ± 11.5%; in test [2] it was 1.1 ± 4.9%.

With `Cc1[nH]c(C(=O)NCCCc2nc3ccccc3[nH]2)c(C)c1C(=O)OC(C)C` [Compound 37], the inhibition at 50 µM on Cathepsin V [1] was -3.4 ± 2.9%; in test [2], -2.1 ± 0.7%.

`CN(C)c1ccc(CC(=O)NC2CCCN(Cc3cccnc3)C2)cc1` (centres unmarked) [Compound 30]: the inhibition at 50 µM on Cathepsin V [1] is -2 ± 3.3%; in test [2], -1.2 ± 0.3%.

`Brc1ccccc1CNc1ncncc1-c1nc(-c2ccsc2)no1` [Compound 11]: the inhibition at 50 µM is -3.1 ± 4.6% at Cathepsin V [1] and 6.3 ± 2.6% in test [2].

With `COC(=O)Cc1c[nH]c2ccc(OCC(O)CNC(C)C)cc12` (centres unmarked) [Compound 52], the inhibition at 50 µM on Cathepsin V [1] is 0.3 ± 8.8%; in test [2], -0.7 ± 1.5%.

Take `Cc1cc(C)c2sc(NC(=O)c3ccc(S(=O)(=O)N4CCc5ccccc5C4)cc3)nc2c1` [Compound 3]: in test [2], the inhibition at 50 µM worked out at 147 ± 88.7%.

Take `CC1Oc2ccccc2OC1C(=O)NCC#CCN1CCc2ccccc2C1` (centres unmarked) [Compound 12]: the inhibition at 50 µM at Cathepsin V [1] was -9.5 ± 9.2%; in test [2] it was 15.6 ± 1.2%.

As for `O=C(NCc1nnc2c(C(F)(F)F)cccn12)c1cc(-c2cccs2)n[nH]1` [Compound 19], the inhibition at 50 µM at Cathepsin V [1] was 3.8 ± 3.5%; in test [2], 17.8 ± 13.7%.

As to `O=C(NCC(O)CN1CCOCC1)c1cc2cc(Br)ccc2[nH]1` (centres unmarked) [Compound 35], the figures for the inhibition at 50 µM (on Cathepsin V [1]; in test [2]) were 16.6 ± 8.4% and 12 ± 1.3%, respectively.

Take `COc1ccc(CNC(=O)N2CCC(C(N)=O)CC2)cc1` [Compound 36]: the inhibition at 50 µM on Cathepsin V [1] was 15.2 ± 10%; in test [2] it was -0.6 ± 1.7%.

`CCOC(=O)N1CCC(NC(=O)NCc2ccc(OC)cc2)CC1` [Compound 33]: the inhibition at 50 µM at Cathepsin V [1] was -1.6 ± 6.5%; in test [2], 3.4 ± 4.4%.

For the molecule `O=C(c1cc(Br)ccc1OCc1ccccc1)C1OC1c1cc2ccccc2o1` (centres unmarked) [Compound 26], the inhibition at 50 µM on Cathepsin V [1] stood at 6.3 ± 4.6%; in test [2], 10.6 ± 4.5%. Further, the Ki in test [4] came to 375 ± 20.5 µM.

`COC(=O)N1CCC(CNC(=O)NC(c2ccccc2)c2ccccc2)CC1` [Compound 45]: the inhibition at 50 µM is 9.2 ± 6.4% on Cathepsin V [1] and 3.3 ± 2.4% in test [2].

As to `O=C(NC(Cc1ccccc1)C(=O)O)C1CCC(CNC(=O)C2Cc3ccccc3CN2)CC1` (centres unmarked) [Compound 51], the inhibition at 50 µM at Cathepsin V [1] is -9.8 ± 5.8%; in test [2], -4 ± 7.3%.

With `O=C(Nc1nc2c(s1)CN(Cc1ccccc1)CC2)c1ccc(-c2ccccc2)cc1` [Compound 31], the inhibition at 50 µM at Cathepsin V [1] was 29.2 ± 7%; in test [2], 20.9 ± 7.2%.

Regarding `COc1ccc(CNC(=O)NCC2CCN(C(=O)N(C)C)CC2)cc1` [Compound 46], the inhibition at 50 µM came out at 12.1 ± 9.8% at Cathepsin V [1] and 4.3 ± 4.1% in test [2].

Consider `O=C(c1cc(F)ccc1OCc1ccccc1)C1OC1c1ccc2c(c1)OCCO2` (centres unmarked) [Compound 24], for which the inhibition at 50 µM amounted to 0.8 ± 3.3% at Cathepsin V [1] and 17.7 ± 11.7% in test [2].

Consider `Cc1ccc(Cl)c2sc(NC(=O)c3ccc(S(=O)(=O)N4CCc5ccccc5C4)cc3)nc12` [Compound 2], for which the results for the inhibition at 50 µM (at Cathepsin V [1]; in test [2]) were 16.4 ± 0.3% and 20 ± 2.2%, respectively. Besides, the Ki in test [4] was 162 ± 1.8 µM.

Take `COc1ccc(-c2cn3c(CCC(=O)Nc4nc5ccccc5s4)csc3n2)cc1` [Compound 9]: the inhibition at 50 µM was found to be 18.9 ± 1.3% at Cathepsin V [1] and 17.5 ± 5.3% in test [2].

`Cc1cc(CNC(=O)Cc2cccc3ccccc23)ncn1` [Compound 17]: the inhibition at 50 µM was -2.4 ± 5.6% on Cathepsin V [1] and 9.4 ± 9.5% in test [2].

`CC(=O)N1CCc2cc(C(=O)C(C)OC(=O)CCc3nc(-c4cccs4)no3)ccc21` (centres unmarked) [Compound 34]: the inhibition at 50 µM in test [2] is -3 ± 0.5%.

For the molecule `O=C(NCCN1CCN(c2ccc(Cl)cc2)CC1)[C@H]1CC(=O)N(c2ccccc2)C1` [Compound 8], the inhibition at 50 µM at Cathepsin V [1] was -20.3 ± 3.5%; in test [2], -4.4 ± 2.1%.

As for `COc1ccc(CNC(=O)NCC2CCN(C(=O)Oc3ccccc3)CC2)cc1` [Compound 47], the inhibition at 50 µM worked out at 9.5 ± 2.5% at Cathepsin V [1] and 4.4 ± 4.6% in test [2].

With `Cc1nccc(O[C@H]2CCN(S(=O)(=O)/C=C/c3ccccc3)C2)n1` [Compound 16], the inhibition at 50 µM on Cathepsin V [1] is -6.5 ± 0.9%; in test [2] it was -1 ± 4.8%.

With `O=C(NC[C@H]1CCCN1c1ccccc1)c1cccnc1` [Compound 14], the inhibition at 50 µM came to 7.8 ± 3.1% at Cathepsin V [1] and 13.1 ± 2.6% in test [2].

Consider `O=C(NCc1cccc2ccccc12)Nc1ccc2c(c1)CCCN2C(=O)c1cccs1` [Compound 10], for which the inhibition at 50 µM at Cathepsin V [1] came to 17.8 ± 3.3%; in test [2] it was 21.5 ± 1.2%.

For the molecule `O=C(CN1Cc2ccccc2C1)NC1CCCN(Cc2cccc(O)c2)C1` (centres unmarked) [Compound 29], the figures for the inhibition at 50 µM (on Cathepsin V [1]; in test [2]) were -0.5 ± 1.2% and -2.4 ± 2%, respectively.

As to `O=C(NCc1nnc2c(C(F)(F)F)cccn12)c1cc2cc(Cl)ccc2[nH]1` [Compound 20], the inhibition at 50 µM turned out to be 16.9 ± 0.6% at Cathepsin V [1] and 14.5 ± 2.4% in test [2].
